{"source": "patent US6962714B2", "about": "“Critical fluid antimicrobial compositions and their use and generation” (priority 2002, dated 2005)", "type_in_all_cases": "cell-based", "key": {"[1]": {"tested_on": "Staphylococcus aureus ATCC 6538", "assay": "Hard surface test, stainless steel coupon exposed to vent gas in closed vessel", "details": "S. aureus ATCC 6538, vent gas five minutes", "protocol": "(§1) The efficacy of peroxyacetic acid antimicrobial delivered via CO2 gas was tested in a hard surface test against Escherichia coli and Staphylococcus aureus.\n(§2) The coupons were exposed to the peroxyacetic acid antimicrobial vent gas for five minutes. Dry and wet methods were used for the testing. In the dry method, a dry film was generated on the coupon by adding a 20 μl suspension onto the coupon surface and drying the solution prior to the experiment. In the wet method, the 20 μl suspension was added to the coupon surface immediately before placing the coupon in the syringe and exposing it to the antimicrobial gas. After exposure to the antimicrobial gas for a set time period, the coupon was removed and placed in an appropriate neutralizer to stop the antimicrobial chemical activity. The bacteria remaining on the coupons were then incubated and the population reduction was determined."}, "[2]": {"tested_on": "Escherichia coli ATCC 11229", "assay": "Hard surface test, stainless steel coupon exposed to vent gas in closed vessel", "details": "E. coli ATCC 11229, vent gas five minutes", "protocol": "as §1, §2"}, "[3]": {"tested_on": "Staphylococcus aureus ATCC 6538", "assay": "Aqueous suspension (solution) test, antimicrobial vent gas bubbled through broth", "details": "S. aureus ATCC 6538, POAA in CO2 gas bubbled through 10 ml bacteria solution", "protocol": "(§3) Exposure times of 30 seconds and two minutes were tested."}, "[4]": {"tested_on": "Escherichia coli ATCC 11229", "assay": "Aqueous suspension (solution) test, antimicrobial vent gas bubbled through broth", "details": "E. coli ATCC 11229, POAA in CO2 gas bubbled through 10 ml bacteria solution", "protocol": "as §3"}, "[5]": {"details": "dry method (dry bacterial film on coupon)"}, "[6]": {"details": "wet method (20 μl bacterial suspension on coupon)"}, "[7]": {"details": "exposure 2 minutes, listed as peroxyacetic acid"}}, "data": [{"compound": "CC(=O)OO", "note": "[POAA, peroxyacetic acid]", "values": [{"measurement": "Log Reduction", "setting": "[1]; [5]", "value": 5.5, "unit": "log"}, {"measurement": "Log Reduction", "setting": "[1]; [6]", "value": 5.5, "unit": "log"}, {"measurement": "Log Reduction", "setting": "[2]; [5]", "value": 6.5, "unit": "log"}, {"measurement": "Log Reduction", "setting": "[2]; [6]", "value": 6.5, "unit": "log"}, {"measurement": "Log Reduction", "setting": "[3]; exposure 30 seconds", "value": 2.5, "unit": "log"}, {"measurement": "Log Reduction", "setting": "[3]; exposure 2 minutes", "value": 6.3, "unit": "log"}, {"measurement": "Log Reduction", "setting": "[3]; [7]", "value": "greater than 6 log"}, {"measurement": "Log Reduction", "setting": "[4]; exposure 30 seconds", "value": 1.1, "unit": "log"}, {"measurement": "Log Reduction", "setting": "[4]; exposure 2 minutes", "value": 6.1, "unit": "log"}, {"measurement": "Log Reduction", "setting": "[4]; [7]", "value": "greater than 6 log"}]}]}
